Laboratory results as given in ChEMBL document CHEMBL4308841, “Synthesis, in vitro antiproliferative activity, and kinase inhibitory effects of pyrazole-containing diarylureas and diarylamides” (Eur J Med Chem, 2018).

Each molecule was assayed on M14 (assay: Growth inhibition of human M14 cells assessed as cell growth at 1 uM incubated for 48 hrs by sulforhodamine B assay relative to control). Conditions: M14, 48 h, read-out: Activity.
Format: functional
Molecule `O=C(Nc1cccc(-n2cc(-c3ccncc3)c(-c3cc(O)cc(Cl)c3)n2)c1)c1ccc(N2CCOCC2)c(C(F)(F)F)c1` has a growth at 1 µM of 45%.

These molecules were tested on A498 (assay: Growth inhibition of human A498 cells assessed as cell growth at 0.01 uM incubated for 48 hrs by sulforhodamine B assay relative to control). Conditions: A498, 48 h, read-out: Activity.
Format: functional
`O=C(Nc1cccc(-n2cc(-c3ccncc3)c(-c3cc(O)cc(Cl)c3)n2)c1)c1ccc(N2CCOCC2)c(C(F)(F)F)c1` gave a growth at 0.01 µM of 97%.

Each molecule was assayed on SNB-19 (assay: Growth inhibition of human SNB19 cells assessed as cell growth at 1 uM incubated for 48 hrs by sulforhodamine B assay relative to control). Conditions: SNB-19, 48 h, read-out: Activity.
Format: functional
`O=C(Nc1cccc(-n2cc(-c3ccncc3)c(-c3cc(O)cc(Cl)c3)n2)c1)c1ccc(N2CCOCC2)c(C(F)(F)F)c1` was tested, and the growth at 1 µM was 90%.

These molecules were tested on NCI-H23 (assay: Growth inhibition of human NCI-H23 cells incubated for 48 hrs by sulforhodamine B assay). Conditions: NCI-H23, 48 h, read-out: GI50.
Format: functional, cell-based
Molecule `O=C(Nc1cccc(-n2cc(-c3ccncc3)c(-c3cc(O)cc(Cl)c3)n2)c1)c1ccc(N2CCOCC2)c(C(F)(F)F)c1` has a GI50 of 3.56 µM.

Same assay, conditions: NCI-H23, 48 h, read-out: LC50
`O=C(Nc1cccc(-n2cc(-c3ccncc3)c(-c3cc(O)cc(Cl)c3)n2)c1)c1ccc(N2CCOCC2)c(C(F)(F)F)c1` showed an LC50 greater than 100 µM.

Same assay, conditions: NCI-H23, 48 h, read-out: TGI
`O=C(Nc1cccc(-n2cc(-c3ccncc3)c(-c3cc(O)cc(Cl)c3)n2)c1)c1ccc(N2CCOCC2)c(C(F)(F)F)c1` showed a TGI of 38.8 µM.

Same assay, conditions: NCI-H23, 48 h, read-out: pGI50 (converted)
`O=C(Nc1cccc(-n2cc(-c3ccncc3)c(-c3cc(O)cc(Cl)c3)n2)c1)c1ccc(N2CCOCC2)c(C(F)(F)F)c1` was tested, and the GI50 was 3.63 µM.

Same assay, conditions: NCI-H23, 48 h, read-out: pLC50 (converted)
`O=C(Nc1cccc(-n2cc(-c3ccncc3)c(-c3cc(O)cc(Cl)c3)n2)c1)c1ccc(N2CCOCC2)c(C(F)(F)F)c1` gave an LC50 greater than 100 µM.

Same assay, conditions: NCI-H23, 48 h, read-out: pTGI (converted)
Work on `O=C(Nc1cccc(-n2cc(-c3ccncc3)c(-c3cc(O)cc(Cl)c3)n2)c1)c1ccc(N2CCOCC2)c(C(F)(F)F)c1` yielded a TGI of 38.9 µM.

What follows are molecules tested on MOLT-4 (assay: Growth inhibition of human MOLT4 cells assessed as cell growth at 0.01 uM incubated for 48 hrs by sulforhodamine B assay relative to control). Conditions: MOLT-4, 48 h, read-out: Activity.
Format: functional
With `O=C(Nc1cccc(-n2cc(-c3ccncc3)c(-c3cc(O)cc(Cl)c3)n2)c1)c1ccc(N2CCOCC2)c(C(F)(F)F)c1` the growth at 0.01 µM was 93%.

Each molecule was assayed on RXF 393 (assay: Growth inhibition of human RXF393 cells assessed as cell growth at 100 uM incubated for 48 hrs by sulforhodamine B assay relative to control). Conditions: RXF 393, 48 h, read-out: Activity.
Format: functional
In the case of `O=C(Nc1cccc(-n2cc(-c3ccncc3)c(-c3cc(O)cc(Cl)c3)n2)c1)c1ccc(N2CCOCC2)c(C(F)(F)F)c1`, the growth at 100 µM is reported as -39%.

What follows are molecules tested on KM12 (assay: Growth inhibition of human KM12 cells incubated for 48 hrs by sulforhodamine B assay). Conditions: KM12, 48 h, read-out: GI50.
Format: functional, cell-based
In the case of `O=C(Nc1cccc(-n2cc(-c3ccncc3)c(-c3cc(O)cc(Cl)c3)n2)c1)c1ccc(N2CCOCC2)c(C(F)(F)F)c1`, the GI50 is reported as 1.21 µM.

Same assay, conditions: KM12, 48 h, read-out: LC50 (the source's name)
`O=C(Nc1cccc(-n2cc(-c3ccncc3)c(-c3cc(O)cc(Cl)c3)n2)c1)c1ccc(N2CCOCC2)c(C(F)(F)F)c1` gave a CC50 greater than 100 µM.

Same assay, conditions: KM12, 48 h, read-out: TGI
`O=C(Nc1cccc(-n2cc(-c3ccncc3)c(-c3cc(O)cc(Cl)c3)n2)c1)c1ccc(N2CCOCC2)c(C(F)(F)F)c1` gave a TGI greater than 100 µM.

Same assay, conditions: KM12, 48 h, read-out: pGI50 (converted)
With `O=C(Nc1cccc(-n2cc(-c3ccncc3)c(-c3cc(O)cc(Cl)c3)n2)c1)c1ccc(N2CCOCC2)c(C(F)(F)F)c1` the GI50 was 1.2 µM.

Same assay, conditions: KM12, 48 h, read-out: pLC50 (the source's name) (converted)
`O=C(Nc1cccc(-n2cc(-c3ccncc3)c(-c3cc(O)cc(Cl)c3)n2)c1)c1ccc(N2CCOCC2)c(C(F)(F)F)c1` gave a CC50 greater than 100 µM.

Same assay, conditions: KM12, 48 h, read-out: pTGI (converted)
`O=C(Nc1cccc(-n2cc(-c3ccncc3)c(-c3cc(O)cc(Cl)c3)n2)c1)c1ccc(N2CCOCC2)c(C(F)(F)F)c1` gave a TGI greater than 100 µM.

These molecules were tested on HCC 2998 (assay: Growth inhibition of human HCC2998 cells assessed as cell growth at 100 uM incubated for 48 hrs by sulforhodamine B assay relative to control). Conditions: HCC 2998, 48 h, read-out: Activity.
Format: functional
Molecule `O=C(Nc1cccc(-n2cc(-c3ccncc3)c(-c3cc(O)cc(Cl)c3)n2)c1)c1ccc(N2CCOCC2)c(C(F)(F)F)c1` has a growth at 100 µM of -28%.

The molecules below were run on NCI-H226 (assay: Growth inhibition of human NCI-H226 cells assessed as cell growth at 0.01 uM incubated for 48 hrs by sulforhodamine B assay relative to control). Conditions: NCI-H226, 48 h, read-out: Activity.
Format: functional
For `O=C(Nc1cccc(-n2cc(-c3ccncc3)c(-c3cc(O)cc(Cl)c3)n2)c1)c1ccc(N2CCOCC2)c(C(F)(F)F)c1`, the growth at 0.01 µM was 98%.

Each molecule was assayed on NCI-H322M (assay: Growth inhibition of human NCI-H322M cells assessed as cell growth at 1 uM incubated for 48 hrs by sulforhodamine B assay relative to control). Conditions: read-out: Activity.
Format: functional
With `O=C(Nc1cccc(-n2cc(-c3ccncc3)c(-c3cc(O)cc(Cl)c3)n2)c1)c1ccc(N2CCOCC2)c(C(F)(F)F)c1` the growth at 1 µM was 57%.

Each molecule was assayed on NCI-H23 (assay: Growth inhibition of human NCI-H23 cells assessed as cell growth at 0.01 uM incubated for 48 hrs by sulforhodamine B assay relative to control). Conditions: NCI-H23, 48 h, read-out: Activity.
Format: functional
Work on `O=C(Nc1cccc(-n2cc(-c3ccncc3)c(-c3cc(O)cc(Cl)c3)n2)c1)c1ccc(N2CCOCC2)c(C(F)(F)F)c1` yielded a growth at 0.01 µM of 105%.

What follows are molecules tested on NCI-H460 (assay: Growth inhibition of human NCI-H460 cells assessed as cell growth at 100 uM incubated for 48 hrs by sulforhodamine B assay relative to control). Conditions: NCI-H460, 48 h, read-out: Activity.
Format: functional
`O=C(Nc1cccc(-n2cc(-c3ccncc3)c(-c3cc(O)cc(Cl)c3)n2)c1)c1ccc(N2CCOCC2)c(C(F)(F)F)c1` showed a growth at 100 µM of -47%.

These molecules were tested on T47D (assay: Growth inhibition of human T47D cells assessed as cell growth at 0.1 uM incubated for 48 hrs by sulforhodamine B assay relative to control). Conditions: read-out: Activity.
Format: functional
In the case of `O=C(Nc1cccc(-n2cc(-c3ccncc3)c(-c3cc(O)cc(Cl)c3)n2)c1)c1ccc(N2CCOCC2)c(C(F)(F)F)c1`, the growth at 0.1 µM is reported as 98%.

The molecules below were run on IGROV-1 (assay: Growth inhibition of human IGROV1 cells assessed as cell growth at 0.1 uM incubated for 48 hrs by sulforhodamine B assay relative to control). Conditions: IGROV-1, 48 h, read-out: Activity.
Format: functional
Work on `O=C(Nc1cccc(-n2cc(-c3ccncc3)c(-c3cc(O)cc(Cl)c3)n2)c1)c1ccc(N2CCOCC2)c(C(F)(F)F)c1` yielded a growth at 0.1 µM of 103%.

The molecules below were run on UACC-62 (assay: Growth inhibition of human UACC62 cells assessed as cell growth at 1 uM incubated for 48 hrs by sulforhodamine B assay relative to control). Conditions: UACC-62, 48 h, read-out: Activity.
Format: functional
Work on `O=C(Nc1cccc(-n2cc(-c3ccncc3)c(-c3cc(O)cc(Cl)c3)n2)c1)c1ccc(N2CCOCC2)c(C(F)(F)F)c1` yielded a growth at 1 µM of 58%.

What follows are molecules tested on SN12C (assay: Growth inhibition of human SN12C cells assessed as cell growth at 0.1 uM incubated for 48 hrs by sulforhodamine B assay relative to control). Conditions: read-out: Activity.
Format: functional
Molecule `O=C(Nc1cccc(-n2cc(-c3ccncc3)c(-c3cc(O)cc(Cl)c3)n2)c1)c1ccc(N2CCOCC2)c(C(F)(F)F)c1` has a growth at 0.1 µM of 98%.

Each molecule was assayed on KM12 (assay: Growth inhibition of human KM12 cells assessed as cell growth at 100 uM incubated for 48 hrs by sulforhodamine B assay relative to control). Conditions: KM12, 48 h, read-out: Activity.
Format: functional
With `O=C(Nc1cccc(-n2cc(-c3ccncc3)c(-c3cc(O)cc(Cl)c3)n2)c1)c1ccc(N2CCOCC2)c(C(F)(F)F)c1` the growth at 100 µM was 4%.

The molecules below were run on MDA-MB-435 (assay: Growth inhibition of human MDA-MB-435 cells assessed as cell growth at 0.1 uM incubated for 48 hrs by sulforhodamine B assay relative to control). Conditions: MDA-MB-435, 48 h, read-out: Activity.
Format: functional
With `O=C(Nc1cccc(-n2cc(-c3ccncc3)c(-c3cc(O)cc(Cl)c3)n2)c1)c1ccc(N2CCOCC2)c(C(F)(F)F)c1` the growth at 0.1 µM was 69%.
